From patent US6114318A, “17β-(2-oxo-tetrahydrofuranyl)-thio- substituted androstane derivatives” (Glaxo Group Limited, priority 1995, dated 2000)

Key:
ACTH = assay: Systemic Effects--ACTH Suppression in Adrenalectomised Rats; assay type: in vivo, Male CD rats; settings: single intra-tracheal, 4 h
Experimental: (ii) Systemic Effects--ACTH Suppression in Adrenalectomised Rats
Male CD rats (90-120 g) were adrenalectomised under Isoflurane anaesthesia and drinking water was supplemented with 0.9% saline. Four days later the animals receive a single intra-tracheal dose (under Isoflurane anaesthesia) of compound suspended in saline (containing 0.2% Tween-80, 0.2 ml) at 10am. After 4 h animals are sacrificed by administration of Euthetal and blood samples are taken by intra-cardiac puncture and collected into heparinised tubes. The samples are centrifuged (20 minutes at 1000 RPM at 4 deg C.), the plasma is collected and assayed by Radioimmunoassay (RIA) for Adrenocorticotrophic hormone (ACTH) using a DPC double antibody RIA kit. Intact and vehicle control groups were included in each experiment in order to account for diurnal variation in ACTH and effects of vehicle. Results are calculated with respect to the RIA standard curve and expressed as ACTH pg/ml plasma, allowing percentage reduction in ACTH to be calculated.

Rat Ear Oedema = assay: Anti-Inflammatory Activity--Inhibition of Rat Ear Oedema (croton oil); assay type: in vivo; settings: dose 100 μg, inner surface of ears, male rats, 6 hours
Experimental: (i) Anti-Inflammatory Activity--Inhibition of Rat Ear Oedema
The test compounds are dissolved in acetone and 40ul containing 5% croton oil is applied to the inner surface of each of the ears of 60-80 g male rats. Animals are killed 6 hours later and the ears are removed. Standard size (0.5 cm diameter) discs are punched out and the discs weighed. Mean weight of the ear discs is calculated and from this percentage inhibition of ear inflammation in relation to croton oil alone treated ears are calculated.

## CC1(C)O[C@@H]2C[C@H]3[C@@H]4C[C@H](F)C5=CC(=O)C=C[C@]5(C)[C@@]4(F)[C@@H](O)C[C@]3(C)[C@]2(SC2CCOC2=O)O1 (single isomer, unassigned) [Example 2 Isomer A, 6α,9α-Difluoro-11β-hydroxy-16α,17α-isopropylidenedioxy-17β-(2-oxo-tetrahydro-furan-3-yl-sulfanyl)-androsta-1,4-dien-3-one]
ACTH; dose 125 μg
  % Reduction in ACTH: 5%
ACTH; dose 250 μg
  % Reduction in ACTH: 29%
ACTH; dose 500 μg
  % Reduction in ACTH: 45%
Rat Ear Oedema
  % Inhibition (ear inflammation): 56%

## CC1(C)O[C@@H]2C[C@H]3[C@@H]4C[C@H](F)C5=CC(=O)C=C[C@]5(C)[C@@]4(F)[C@@H](O)C[C@]3(C)[C@]2(S[C@H]2CCOC2=O)O1 (single isomer, unassigned) [Example 2 Isomer B, 6α,9α-Difluoro-11β-hydroxy-16α,17α-isopropylidenedioxy-17β-(2-oxo-tetrahydro-furan-3-yl-sulfanyl)-androsta-1,4-dien-3-one]
Rat Ear Oedema
  % Inhibition (ear inflammation): 54%

## CCC[C@@H]1O[C@@H]2C[C@H]3[C@@H]4C[C@H](F)C5=CC(=O)CC[C@]5(C)[C@@]4(F)[C@@H](O)C[C@]3(C)[C@]2(SC2CCOC2=O)O1 (single isomer, unassigned) [Example 3 Isomer A, 16α,17α-(R-Butylidenedioxy)-6α,9α-difluoro-11β-hydroxy-17β-(2-oxo-tetrahydro-furan-3-yl-sulfanyl)-androst-4-en-3-one]
Rat Ear Oedema
  % Inhibition (ear inflammation): 55%

## CC1(C)O[C@@H]2C[C@H]3[C@@H]4C[C@H](F)C5=CC(=O)C=C[C@]5(C)[C@@]4(F)[C@@H](O)C[C@]3(C)[C@]2(C(=O)CO)O1 [Fluocinolone acetonide, reference compound]
ACTH; dose 1 μg
  % Reduction in ACTH: 49%
ACTH; dose 5 μg
  % Reduction in ACTH: 84%
